Data: publication PMC7822874, “Chemoprotective antimalarials identified through quantitative high-throughput screening of Plasmodium blood and liver stage parasites” (Scientific Reports, 2021)
Read-outs that look alike come from different tables or passages of the source.

What was measured:
[1] = test system: Plasmodium falciparum Dd2 asexual blood stage parasites; experiment: microbe, parasite or virus in culture; parameters: species or system Plasmodium falciparum Dd2 in human erythrocytes; single determination (one 11-point concentration-response curve); settings: Plasmodium falciparum, DD2, Erythrocyte, 72 h; read-out: AC50
HepG2-A16-CD81EGFP cells = settings: average of 2 wells; for HepG2 1uM growth rep1 / HepG2 1uM growth rep2: HepG2, 1 µM compound treatment (10 mM stocks); for HepG2 1uM growth rep1 / HepG2 3uM growth rep1: replicate 1, normalized; for HepG2 1uM growth rep2 / HepG2 3uM growth rep2: replicate 2, normalized; for HepG2 3uM growth rep1 / HepG2 3uM growth rep2: HepG2, 3 µM compound treatment (10 mM stocks)
[2] = test system: P. berghei-ANKA-GFP-LucCON liver stage parasites in HepG2-A16-CD81EGFP cells; experiment: P. berghei liver stage Pb-Luc assay, Method 1 (UCSD, 1536-well); format: cell-based, Plasmodium berghei; settings: Plasmodium berghei, 48 h
[3] = P. berghei liver stage, 1 µM compound treatment (10 mM stocks), replicate 1, normalized, average of 2 wells on a 1536 well plate, read-out: PbLuc 1uM growth rep1
[4] = P. berghei liver stage, 1 µM compound treatment (10 mM stocks), replicate 2, normalized, average of 2 wells on a 1536 well plate, read-out: PbLuc 1uM growth rep2
[5] = P. berghei liver stage, 3 µM compound treatment (10 mM stocks), replicate 1, normalized, average of 2 wells on a 1536 well plate, read-out: PbLuc 3uM growth rep1
[6] = P. berghei liver stage, 3 µM compound treatment (10 mM stocks), replicate 2, normalized, average of 2 wells on a 1536 well plate, read-out: PbLuc 3uM growth rep2

Row | Compound | AC50 [1] | HepG2 1uM growth rep1 (HepG2-A16-CD81EGFP cells) | HepG2 1uM growth rep2 (HepG2-A16-CD81EGFP cells) | HepG2 3uM growth rep1 (HepG2-A16-CD81EGFP cells) | HepG2 3uM growth rep2 (HepG2-A16-CD81EGFP cells) | activity at 1 µM [2, 3] | activity at 1 µM [2, 4] | activity at 3 µM [2, 5] | activity at 3 µM [2, 6] | HepG2 viability signal, 1 uM, repeat 1 (HepG2-A16-CD81EGFP cells; nominal 1 uM (10 mM stock), […] for 15 mM, 1.2 uM for 12 mM, 2 uM for 20 mM stock, repeat 1) | HepG2 viability signal, 1 uM, repeat 2 (HepG2-A16-CD81EGFP cells; nominal 1 uM (10 mM stock), […] for 15 mM, 1.2 uM for 12 mM, 2 uM for 20 mM stock, repeat 2) | HepG2 viability signal, 3 uM, repeat 1 (HepG2-A16-CD81EGFP cells; nominal 3 uM (10 mM stock), 4.5 uM for 15 mM, 3.6 uM for 12 mM, 6 uM for 20 mM stock, repeat 1) | HepG2 viability signal, 3 uM, repeat 2 (HepG2-A16-CD81EGFP cells; nominal 3 uM (10 mM stock), 4.5 uM for 15 mM, 3.6 uM for 12 mM, 6 uM for 20 mM stock, repeat 2) | activity at 1 µM ([2]; nominal 1 uM (10 mM stock), […] for 15 mM, 1.2 uM for 12 mM, 2 uM for 20 mM stock, average of 2 wells, 1536-well plate, repeat 1, read-out: Pb-Luc signal, 1 uM, repeat 1) | activity at 1 µM ([2]; nominal 1 uM (10 mM stock), […] for 15 mM, 1.2 uM for 12 mM, 2 uM for 20 mM stock, average of 2 wells, 1536-well plate, repeat 2, read-out: Pb-Luc signal, 1 uM, repeat 2) | activity at 1 µM ([2]; nominal 1 uM (10 mM stock), […] for 15 mM, 1.2 uM for 12 mM, 2 uM for 20 mM stock, average of 2 wells, 1536-well plate, repeat 3, read-out: Pb-Luc signal, 1 uM, repeat 3) | activity at 3 µM ([2]; nominal 3 uM (10 mM stock), 4.5 uM for 15 mM, 3.6 uM for 12 mM, 6 uM for 20 mM stock, average of 2 wells, 1536-well plate, repeat 1, read-out: Pb-Luc signal, 3 uM, repeat 1) | activity at 3 µM ([2]; nominal 3 uM (10 mM stock), 4.5 uM for 15 mM, 3.6 uM for 12 mM, 6 uM for 20 mM stock, average of 2 wells, 1536-well plate, repeat 2, read-out: Pb-Luc signal, 3 uM, repeat 2) | activity at 3 µM ([2]; nominal 3 uM (10 mM stock), 4.5 uM for 15 mM, 3.6 uM for 12 mM, 6 uM for 20 mM stock, average of 2 wells, 1536-well plate, repeat 3, read-out: Pb-Luc signal, 3 uM, repeat 3)
1 | CCCCN(C(=O)c1cccc(S(=O)(=O)N(C)c2ccc(C)cc2)c1)c1c(N)n(CCCC)c(=O)[nH]c1=O [MLS001128188-01] | 5310 nM | 96% | 92% | 90% | 93% | 100% | 88% | 85% | 111% |  |  |  |  |  |  |  |  |  | 
2 | COc1ccc(-n2nc(C(=O)NCC(=O)N3CCN(c4ccccc4OC)CC3)c3ccccc3c2=O)c(OC)c1 [MLS000936211-01] | 2110 nM | 89% | 88% | 92% | 89% | 82% | 118% | 90% | 112% |  |  |  |  |  |  |  |  |  | 
3 | CCCC(C)C(=O)Nc1ncc(S(=O)(=O)c2ccc([N+](=O)[O-])cc2)s1 (centres unmarked) [MLS001034555-01] | 5960 nM | 95% | 92% | 93% | 94% | 109% | 117% | 105% | 136% |  |  |  |  |  |  |  |  |  | 
4 | COc1ccc(C2c3[nH]c4ccccc4c3C[C@H]3C(=O)N(C4CCN(Cc5ccccc5)CC4)CC(=O)N23)cc1OC (some centres unmarked) [MLS001215281-01] | 2990 nM | 107% | 95% | 91% | 90% | 95% | 94% | 66% | 79% |  |  |  |  |  |  |  |  |  | 
5 | Clc1ccc2c(N/N=C/c3cccc(Br)c3)ccnc2c1 [MLS000336198-01] | 10600 nM | 83% | 80% | 87% | 87% | 63% | 77% | 45% | 62% |  |  |  |  |  |  |  |  |  | 
6 | O=C(CCl)Nc1ccc(Oc2cnc3ccccc3n2)cc1 [MLS000327546-01] | 3350 nM | 90% | 86% | 92% | 90% | 99% | 119% | 104% | 138% |  |  |  |  |  |  |  |  |  | 
7 | CCCCc1c(C)c(C#N)c2nc3ccccc3n2c1Nc1c(C)n(C)n(-c2ccccc2)c1=O [MLS000555448-01] | 2660 nM | 92% | 93% | 87% | 94% | 131% | 125% | 114% | 127% |  |  |  |  |  |  |  |  |  | 
8 | Cc1cc(C)c(C)c(S(=O)(=O)NCc2ccc(C(=O)N3CCCCC3)cc2)c1C [MLS000547926-01] | 3760 nM | 93% | 95% | 87% | 94% | 124% | 129% | 104% | 108% |  |  |  |  |  |  |  |  |  | 
9 | CCOC(=O)C1CCN(Cc2cc(Cl)c3ccccc3c2O)CC1 [MLS001171913-01] | 1880 nM | 88% | 93% | 88% | 86% | 100% | 93% | 91% | 110% |  |  |  |  |  |  |  |  |  | 
10 | COc1ccc(C2Sc3ccccc3N=C3C2=C(O)c2ccccc23)c(OC)c1OC (centres unmarked) [NCGC00108825-01] | 750 nM |  |  |  |  |  |  |  |  | 40.50% | 77.27% | 21.41% | 66.08% | 80.6% | 95.6% | 53.5% | 34.1% | 70.7% | 74.5%
11 | Cc1noc(C)c1CSc1nc2sc3c(c2c(=O)n1C)CCCC3 [MLS000564913-01] | 8410 nM | 92% | 88% | 88% | 92% | 120% | 107% | 61% | 89% |  |  |  |  |  |  |  |  |  | 
12 | COc1cc(NC(=O)c2cc([N+](=O)[O-])ccc2NC(=O)CNC2CCCCC2C)cc(OC)c1 (centres unmarked) [MLS000950459-01] | 5960 nM | 96% | 92% | 90% | 90% | 94% | 109% | 82% | 122% |  |  |  |  |  |  |  |  |  | 
13 | Cc1ccccc1C1C(C#N)=C2N=C(N)c3c(sc4c3CCCCC4)N2C2=C1C(=O)CCC2 (centres unmarked) [MLS000543544-01] | 2660 nM | 94% | 95% | 90% | 96% | 129% | 99% | 79% | 94% |  |  |  |  |  |  |  |  |  | 
14 | CC(C)CCN(CCC(C)C)CC(O)Cn1c2ccccc2c(=O)c2ccccc21 (centres unmarked) [MLS001030199-01] | 1880 nM | 105% | 96% | 84% | 94% | 128% | 103% | 76% | 87% |  |  |  |  |  |  |  |  |  | 
15 | CCC(=O)N1CCc2cc(Br)cc(S(=O)(=O)N3CCCCC3CC)c21 (centres unmarked) [MLS000936752-01] | 1060 nM | 106% | 96% | 87% | 93% | 89% | 100% | 89% | 116% |  |  |  |  |  |  |  |  |  | 
16 | COc1cc(O)c(C(CCN2CCCCC2)c2ccc(N(C)C)cc2)c(OC)c1 (centres unmarked) [MLS000879496-01] | 2660 nM | 108% | 100% | 87% | 98% | 126% | 95% | 91% | 95% |  |  |  |  |  |  |  |  |  | 
17 | O=C(c1ccc([N+](=O)[O-])o1)N1CCN(c2nc3c(Cl)cccc3s2)CC1 [MLS001234208-01] | 4220 nM | 103% | 93% | 86% | 94% | 67% | 72% | 36% | 52% |  |  |  |  |  |  |  |  |  | 
18 | Cc1cc(C)n(-c2nnc(N3CCN(c4ccccc4)CC3)nn2)n1 [MLS000695202-01] | 596 nM | 99% | 95% | 90% | 98% | 122% | 82% | 91% | 76% |  |  |  |  |  |  |  |  |  | 
19 | CCOC(=O)c1c(CN2CCN(c3ccccc3)CC2)oc2cc(Br)c(O)cc12 [MLS001198242-01] | 1880 nM | 109% | 100% | 87% | 95% | 136% | 107% | 96% | 86% |  |  |  |  |  |  |  |  |  | 
